Measured values reported in ChEMBL document CHEMBL5370694, “Novel Pyrrole Derivatives as Apolipoprotein L-1 Inhibitors for Treating Kidney Diseases and Sepsis” (ACS Med Chem Lett, 2023).

Experiments:
[1] = Inhibition of APOL1 isoform G2 variant in human U2OS cells incubated for 80 mins by thallium flux based FLIPR assay; assay type: cell-based
Apolipoprotein L1 = target: T1, Apolipoprotein L1 (Homo sapiens, UniProt O14791); assay: Inhibition of wild type APOL1 containing G0 in human U2OS cells incubated for 80 mins by thallium flux based FLIPR assay; assay type: cell-based
T1 sequence (O14791 whole entry): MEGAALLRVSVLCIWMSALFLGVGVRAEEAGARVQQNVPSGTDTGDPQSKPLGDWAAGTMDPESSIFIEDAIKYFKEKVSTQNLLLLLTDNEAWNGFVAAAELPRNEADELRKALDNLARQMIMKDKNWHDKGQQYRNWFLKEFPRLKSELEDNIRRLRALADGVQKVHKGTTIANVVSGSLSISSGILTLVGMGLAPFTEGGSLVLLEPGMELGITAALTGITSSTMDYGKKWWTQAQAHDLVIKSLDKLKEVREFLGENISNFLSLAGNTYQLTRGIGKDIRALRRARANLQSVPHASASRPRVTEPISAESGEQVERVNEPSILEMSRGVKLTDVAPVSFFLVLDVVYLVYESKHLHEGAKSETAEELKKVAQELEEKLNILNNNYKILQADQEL

IC50 [1]	IC50 (Apolipoprotein L1)	SMILES
0.794 nM	0.501 nM	O=C(CCc1cc(-c2c(F)cc(F)cc2Cl)[nH]c1-c1ccc(Cl)cc1)N[C@@H]1C(=O)NC[C@H]1O
5.01 nM	2.51 nM	O=C(CCc1cc(C2(C(F)(F)F)CC2)[nH]c1-c1ccc(C(F)(F)F)cc1)N[C@@H]1C(=O)NC[C@H]1O
3.98 nM	3.16 nM	O=C(CCc1cc(-c2c(F)cc(F)cc2F)[nH]c1-c1ccc(Cl)cc1)N[C@@H]1C(=O)NC[C@H]1O
5.01 nM	1.58 nM	CC(C)(C)c1cc(CCC(=O)N[C@@H]2C(=O)NC[C@H]2O)c(-c2ccc(C(F)(F)F)cc2)[nH]1
3.98 nM	2.51 nM	O=C(CCc1cc(C2(C(F)(F)F)CC2)[nH]c1-c1ccc(Cl)cc1)N[C@@H]1C(=O)NC[C@H]1O
5.01 nM	2 nM	O=C(CCc1c(-c2ccc(Cl)cc2)[nH]c(C2(C(F)(F)F)CC2)c1F)N[C@@H]1C(=O)NC[C@H]1O
